Test systems include Bacillus subtilis; Botrytis cinerea; Escherichia coli; Fusarium verticillioides; Proteus vulgaris; Pseudomonas aeruginosa; Saccharomyces cerevisiae; Salmonella typhimurium; Staphylococcus aureus; Trichosporon beigelii; Bacillus cereus JCM 2152; Fusarium oxysporum; Fusarium solani; Ramulariopsis gossypii; Rhizoctonia solani; Trichoderma asperellum.
What all share (test): ≥ marks a high value that may be exact or a test limit, other limits are often not marked, values filed in µg/mL are converted to µM
In test [1] the test system is Aspergillus flavus KCTC 9471.
In test [2] the test system is Aspergillus fumigatus KCTC 6145.
Test [3] deals with Candida albicans KCTC 7270.
For test [4], the system named is Escherichia coli O157:H7 ATCC 43895.
Test [5] deals with Listeria monocytogenes KCTC 3710.
Test [6] relates to Staphylococcus epidermidis.
Test [7] has as its system Candida albicans JCM 2085.
Test [8] deals with Staphylococcus aureus JCM 2874.
Test [9] concerns Bacillus cereus ATCC 14579.
In test [10] the test system is Bacillus subtilis ATCC 23857.
For test [11], the system named is Candida albicans ATCC 90028.
In test [12] the test system is Cryptococcus neoformans ATCC 28957.
Test [13] deals with Escherichia coli ATCC 25922.
Test [14] relates to Fusarium oxysporum f.sp. vasinfectum.
Test [15] relates to Pectobacterium carotovorum.
For test [16], the system named is Pseudomonas aeruginosa ATCC 27853.
The test system of test [17] is Pseudomonas syringae pv. tabaci.
The test system of test [18] is Staphylococcus aureus ATCC 25923.
The test system of test [19] is Xanthomonas campestris pv. citri.
In test [20] the test system is Bacillus subtilis CGMCC 1.3376.
Test [21] relates to Escherichia coli CGMCC 1.8732.
Test [22] deals with Klebsiella pneumoniae CGMCC 1.1736.
The test system of test [23] is Pseudomonas aeruginosa CGMCC 1.2421.
The test system of test [24] is Staphylococcus aureus CGMCC 1.8721.
Test [25] relates to Staphylococcus epidermidis CGMCC 1.4260.
The subject of test [26] is Escherichia coli K-12 594.
Test [27] deals with Staphylococcus aureus ATCC 6538P.
Test [28] deals with Staphylococcus aureus SR1550.
Test [29] has as its system Streptococcus gordonii ATCC 10558.
Test [30] has as its system Streptococcus mutans GS-5.
The test system of test [31] is Streptococcus mutans UA159.
For test [32], the system named is Streptococcus sanguinis ATCC 49295.

Each structure is given as a SMILES string. In brackets after ≈: the same amount, converted by molar mass.

For `CC[C@H](C)[C@H](NC(=O)[C@H](CCCCN)NC(=O)[C@H](CO)NC(=O)[C@H](Cc1ccccc1)NC(=O)[C@H](CC(C)C)NC(=O)[C@H](CCCCN)NC(=O)[C@H](CCC(=O)O)NC(=O)[C@H](CC(C)C)NC(=O)[C@H](CCCN=C(N)N)NC(=O)[C@H](CCCCN)NC(=O)[C@H](Cc1ccccc1)NC(=O)[C@@H](NC(=O)[C@H](CCCCN)NC(=O)[C@H](CCCCN)NC(=O)[C@H](C)N)C(C)C)C(=O)N[C@@H](Cc1ccc(O)cc1)C(=O)N[C@@H](CC(N)=O)C(=O)N[C@@H](Cc1ccc(O)cc1)C(=O)N[C@@H](CCCCN)C(N)=O` [AKKVFKRLEKLFSKIYNYK], the minimal inhibitory concentration (MIC) is no less than 50 µM in test [1]; no less than 35.4 µM in test [2]; 1.56 µM (≈ 3.75 µg/mL) with Bacillus subtilis; 6.25 µM (≈ 15 µg/mL) in the test on Botrytis cinerea; 12.5 µM (≈ 30 µg/mL) in test [3]; 3.13 µM (≈ 7.52 µg/mL) in test [4]. The minimal inhibitory concentration (MIC) against Escherichia coli was found to be 3.13 µM (≈ 7.52 µg/mL); against Fusarium verticillioides it was 12.5 µM (≈ 30 µg/mL); in [5], 0.78 µM (≈ 1.87 µg/mL); with Proteus vulgaris, 4.42 µM (≈ 10.6 µg/mL); in the test with Pseudomonas aeruginosa, 3.13 µM (≈ 7.52 µg/mL); against Saccharomyces cerevisiae it was 25 µM (≈ 60.1 µg/mL). The MIC in the test on Salmonella typhimurium was found to be 0.39 µM (≈ 0.937 µg/mL); in the test with Staphylococcus aureus, 3.13 µM (≈ 7.52 µg/mL); in test [6], 3.13 µM (≈ 7.52 µg/mL); against Trichosporon beigelii, 1.56 µM (≈ 3.75 µg/mL).

As for `CC[C@H](C)[C@H](NC(=O)[C@H](CCCCN)NC(=O)[C@H](CO)NC(=O)[C@@H](NC(=O)[C@H](CC(C)C)NC(=O)[C@H](CO)NC(=O)[C@@H]1CCCN1C(=O)[C@H](CC(C)C)NC(=O)[C@H](Cc1ccccc1)NC(=O)[C@H](CC(N)=O)NC(=O)[C@H](C)NC(=O)[C@H](CC(C)C)NC(=O)[C@H](C)NC(=O)CNC(=O)[C@@H](NC(=O)[C@@H](NC(=O)[C@H](CO)NC(=O)CNC(=O)[C@H](Cc1ccccc1)NC(=O)[C@@H](N)Cc1ccccc1)[C@@H](C)O)[C@@H](C)CC)[C@@H](C)CC)C(=O)N[C@@H](CCCN=C(N)N)C(=O)N[C@@H](CC(N)=O)C(N)=O` [FFGSTIGALANFLPSLISKIRN], the results for the minimum inhibitory concentration (MIC) (against Bacillus cereus JCM 2152; in test [7]; in [8]) were 6.76 µM (≈ 16 µg/mL), 27 µM (≈ 64 µg/mL) and 27 µM (≈ 64 µg/mL), respectively.

As to `CC(C)C[C@H](NC(=O)[C@H](C)NC(=O)[C@H](CC(C)C)NC(=O)[C@@H](NC(=O)[C@H](C)NC(=O)[C@H](CCCCN)NC(=O)[C@H](CC(C)C)NC(=O)[C@H](CC(C)C)NC(=O)[C@@H](NC(=O)[C@H](Cc1cnc[nH]1)NC(=O)[C@@H](NC(=O)[C@H](CCCCN)NC(=O)[C@H](CO)NC(=O)[C@H](CC(C)C)NC(=O)[C@@H](NC(=O)[C@@H](N)CCCCN)C(C)C)C(C)C)[C@@H](C)O)C(C)C)C(N)=O` [KVLSKVHTLLKAVLAL], the minimum inhibitory concentration (MIC) turned out to be 3.33 µM (≈ 5.77 µg/mL) in [9]; 1 µM (≈ 1.73 µg/mL) in [10]; 8 µM (≈ 13.9 µg/mL) in test [11]; 4 µM (≈ 6.93 µg/mL) in test [12]; 2 µM (≈ 3.46 µg/mL) in test [13]; 4 µM (≈ 6.93 µg/mL) in test [14]. Moreover, the MIC against Fusarium oxysporum came to 4 µM (≈ 6.93 µg/mL); against Fusarium solani it was 16 µM (≈ 27.7 µg/mL); in [15] it was 1 µM (≈ 1.73 µg/mL); in test [16], 5.33 µM (≈ 9.23 µg/mL); in test [17], 4 µM (≈ 6.93 µg/mL); against Ramulariopsis gossypii, 2 µM (≈ 3.46 µg/mL). The MIC in the test with Rhizoctonia solani was 16 µM (≈ 27.7 µg/mL); in test [18], 4 µM (≈ 6.93 µg/mL); in the test with Trichoderma asperellum, 16 µM (≈ 27.7 µg/mL); in [19] it was 1 µM (≈ 1.73 µg/mL).

Regarding `CC[C@H](C)[C@H](NC(=O)[C@H](CO)NC(=O)CNC(=O)[C@@H](NC(=O)[C@@H](N)CCCN=C(N)N)[C@@H](C)CC)C(=O)N[C@@H](CC(C)C)C(=O)NCC(=O)N[C@@H](C)C(=O)N[C@@H](CC(C)C)C(=O)N[C@@H](C)C(=O)N[C@@H](CCCCN)C(=O)NCC(=O)N[C@@H](CC(C)C)C(=O)N1CCC[C@H]1C(=O)N[C@H](C(=O)N[C@@H](CC(C)C)C(=O)N[C@H](C(=O)N[C@@H](CO)C(=O)N[C@@H](Cc1c[nH]c2ccccc12)C(=O)N[C@H](C(=O)N[C@@H](CCCCN)C(=O)N[C@@H](CC(N)=O)C(=O)N[C@@H](CCCN=C(N)N)C(N)=O)[C@@H](C)CC)[C@@H](C)CC)[C@@H](C)O` [RIGSILGALAKGLPTLISWIKNR], the MIC in test [20] was 6.25 µM (≈ 15.5 µg/mL); in test [21] it was 12.5 µM (≈ 31 µg/mL); in [22], 12.5 µM (≈ 31 µg/mL); in test [23], 6.25 µM (≈ 15.5 µg/mL); in [24], 6.25 µM (≈ 15.5 µg/mL); in test [25], 3.13 µM (≈ 7.75 µg/mL).

In the case of `CC(C)C[C@H](NC(=O)[C@H](CCCN=C(N)N)NC(=O)[C@H](CC(C)C)NC(=O)[C@H](CC(C)C)NC(=O)[C@H](CC(C)C)NC(=O)[C@H](CC(C)C)NC(=O)[C@H](CC(C)C)NC(=O)[C@H](CCCN=C(N)N)NC(=O)[C@H](CC(C)C)NC(=O)[C@@H](N)CCCN=C(N)N)C(=O)N[C@@H](CCCN=C(N)N)C(N)=O` [RLRLLLLLRLR], the figures for the MIC in test [26], in [27] and in test [28] were 24.4 µM (≈ 35 µg/mL), 1.39 µM (≈ 2 µg/mL) and 24.4 µM (≈ 35 µg/mL), respectively.

`CC(C)C[C@H](NC(=O)[C@H](CCCN=C(N)N)NC(=O)[C@H](Cc1ccccc1)NC(=O)[C@H](Cc1ccccc1)NC(=O)[C@@H](N)[C@@H](C)O)C(=O)N[C@@H](Cc1ccccc1)C(=O)N[C@@H](CC(N)=O)C(=O)N[C@@H](CCCN=C(N)N)C(=O)N[C@@H](CO)C(=O)N[C@@H](Cc1ccccc1)C(=O)N[C@H](C(=O)O)[C@@H](C)O` [TFFRLFNRSFT]: the MIC in test [29], in test [30], in test [31] and in [32] was no less than 178 µM in each case.

Broadly, the MIC is the least concentration at which growth counts as inhibited. Read a high MIC as weaker potency.
